Laboratory results as given in patent publication US20230357261A1, “ARYL HYDROCARBON RECEPTOR LIGANDS AND THEIR ANALOGUES FOR THE PREVENTION AND TREATMENT OF INFLAMMATORY DISORDERS” (The Johns Hopkins University, priority 2020, published 2023).
Entries after “also recorded” stand apart in the source; their conditions may differ.

Assays:
TLR4 [1] = experiment: TLR4 signaling and Tlr4 expression in newborn mouse ileum in vivo (endotoxemia model, LPS)
Procedure: Endotoxemia was induced in neonatal mouse pups (p11) by administering 5 mg/kg lipopolysaccharides (LPS) via intraperitoneal injection, and ileal samples were harvested 6 hours after LPS treatments. […] I3C and A18 were administered to the pregnant mother daily until the offspring were studied further for experimental NEC or endotoxemia as above. […] The mRNA quantification was performed on the Bio-Rad CFX96 Real-Time System (Bio-Rad) using iTaqTM universal SYBR® Green supermix (Bio-Rad) and the primers listed in Table 1. The relative mRNA expression levels were normalized against the expression of the housekeeping gene ribosomal protein lateral stalk subunit P0 (Rplp0). For microRNA isolation, freshly harvested, snap-frozen ileal tissue was subjected to total RNA isolation using the RNeasy plus universal mini kit (Qiagen) and miRNA was quantified using miScript PCR starter kit (Qiagen) following the manufacturer's protocols. The relative miRNA expression levels were normalized against the expression of housekeeping miRNA miR-191.

TLR4 [2] = experiment: TLR4 signaling and expression in human ileal explant culture (LPS); assay type: cell-based; conditions: 200 μM I3C or 20 μM A18; LPS 50 μg/mL for 6 hours
From the text: (§1) De-identified human ileal samples were collected via waiver of consent from the Office of Human Subjects Research Review Boards at Johns Hopkins University (IRB00094036), during surgery for NEC or at the time of stoma closure. For RNA isolation and qRT-PCR analysis, fresh samples were snapfrozen in liquid nitrogen immediately. For human explant culture, fresh ileum samples from NEC patients or patient undergoing stoma re-anastomosis were washed with sterile phosphate-buffered saline containing gentamycin (5 μg/mL), minced into 2- to 4-mm diameter pieces, and then cultured in Dulbecco's modified Eagle growth medium supplemented with 10% fetal bovine serum, 4 μg/mL human recombinant insulin and 100 μg/mL Primocin. Human ilea explant cultures were then pre-treated with 200 μM I3C or 20 μM A18 for 15 minutes, and then with 50 μg/mL LPS for 6 hours, then processed for total RNA isolation followed by qRT-PCR.
(§2) Total RNA was isolated using the RNeasy mini kit (Qiagen) and complementary DNA was synthesized from 0.5 μg RNA using QuantiTect Reverse Transcription kit (Qiagen) following the manufacturer's protocols. The mRNA quantification was performed on the Bio-Rad CFX96 Real-Time System (Bio-Rad) using iTaq™ universal SYBR® Green supermix (Bio-Rad) and the primers listed in Table 1. The relative mRNA expression levels were normalized against the expression of the housekeeping gene ribosomal protein lateral stalk subunit P0 (Rplp0). For microRNA isolation, freshly harvested, snap-frozen ileal tissue was subjected to total RNA isolation using the RNeasy plus universal mini kit (Qiagen) and miRNA was quantified using miScript PCR starter kit (Qiagen) following the manufacturer's protocols. The relative miRNA expression levels were normalized against the expression of housekeeping miRNA miR-191.

AHR [3] = experiment: AHR activation in mouse ileal enteroids (Cyp1a1 qRT-PCR); assay type: cell-based; design: Cyp1a1 expression (AHR activation) in enteroids: dose or concentration left out as unconfirmed
Procedure: (§3) Primary intestinal crypt cultures (enteroids) were generated from the ileum of neonatal (p7-p11) wild type and Ahr′ mice at as described, Neal et al., 2012, and maintained in Matrigel (Corning). The enteroids were digested and passed using TrypLE Express (Gibco) weekly, and used between passage 3 and 10 for all experiments. The enteroids were pre-treated with I3C ([…], 12 h), A18 (20 μM, 12 h) or human breast milk (100 μL/mL, Innovative Research, prepared by 5-minute-cenrifugation at 12,000 g and then filtration of supernatant through a 0.22-μm filter) and then treated with LPS (50 μg/mL) for 4 hours for further analysis.
(§4) Primary intestinal crypt cultures (enteroids) were generated from the ileum of neonatal (p7-p11) mice at as described, Neal et al., 2012, and maintained in Matrigel (Corning). The enteroids were digested and passed using TrypLE Express (Gibco) weekly, and used between passage 3 and 10 for all experiments. The enteroids were pre-treated with tested compound (40 uM, overnight) and then treated with LPS (50 μg/mL) for 6 hours for further analysis.
(§5) Total RNA was isolated using the RNeasy mini kit (Qiagen) and complementary DNA was synthesized from 0.5 μg RNA using QuantiTect Reverse Transcription kit (Qiagen) following the manufacturer's protocols. The mRNA quantification was performed on the Bio-Rad CFX96 Real-Time System (Bio-Rad) using iTaq™ universal SYBR® Green supermix (Bio-Rad) and the primers listed in Table 2. The relative mRNA expression levels were normalized against the expression of the housekeeping gene ribosomal protein lateral stalk subunit P0 (Rplp0).

AHR [4] = experiment: AHR activation in human ileal explant culture (Cyp1a1 qRT-PCR); assay type: cell-based; conditions: 200 μM I3C or 20 μM A18, 15 minutes pre-treatment then 6 hours
From the text: as §1, with “Human ilea explant cultures were then pre-treated with 200 μM I3C or 20 μM A18 for 15 minutes, and then with 50 μg/mL LPS for 6 hours, then processed for total RNA isolation followed by qRT-PCR.” left out
as §2, with “The relative mRNA expression levels were normalized against the expression of the housekeeping gene ribosomal protein lateral stalk subunit P0 (Rplp0).” left out, “The relative miRNA expression levels were normalized against the expression of housekeeping miRNA miR-191.” left out

AHR [5] = experiment: AHR activation in IEC-6 enterocytes (Cyp1a1 expression); assay type: cell-based, rat; conditions: exposed to amniotic fluid, breast milk and serum harvested from pregnant mice administered I3C vs control diet
Procedure: The intestinal epithelial cells line IEC-6 (ATCC CRL-1592) was stably transduced with lentiviral particles containing Cignal Lenti XRE Reporter (luc) (Qiagen). Cells were treated serially with individual chemicals contained within the Johns Hopkins Drug Library (JHDL), which contains a series of FDA-approved drugs, Chong et al., 2006, (kindly provided by Dr. Jun O. Liu, Johns Hopkins University) at 10 μM for 24 hours, and the luciferase activity was quantified using the SpectraMax M3 (Molecular Devices).
as §2

mouse NEC model = experiment: Experimental NEC in newborn mice (Example 1); assay type: in vivo
TLR4 [6] = experiment: TLR4 signaling in mouse ileal enteroids (LPS-induced Tnf-a qRT-PCR); assay type: cell-based; conditions: I3C or breast milk pre-treatment, LPS 50 μg/mL
Procedure: as §3, §4, §5

[7] = system: miR-146b, miR-223 and let-7i; experiment: Tlr4 regulatory microRNAs in mouse ileum; assay type: in vivo; conditions: I3C 25 mg/kg body weight/day for 24 hours
Procedure: as §2

[8] = pups, maternal I3C during pregnancy

OCc1c[nH]c2ccccc12 [I3C, indole-3-carbinol]
TLR4 signaling (LPS-induced Tnfa) in the intestine (TLR4 [1]; Ahr^−/− mice, I3C): did not reduce | Tlr4 expression in the intestinal mucosa (TLR4 [1]; Ahr^−/− mice, I3C): did not reduce | induction of the proinflammatory cytokine 116 in the neonatal (p11) mouse intestine in response to LPS (TLR4 [1]; maternal administration of I3C, vs pups from non I3C-treated mothers): significantly reduced the induction of the proinflammatory cytokine 116 | Tlr4 expression in the intestinal mucosa / newborn ileum (TLR4 [1]; wild-type mice, fed I3C or A18): reduced expression of Tlr4 | LPS-induced Tnfa expression (TLR4 signaling) in the intestine (TLR4 [1]; wild-type p11 mice fed I3C): reduced LPS-induced Tnfa expression | LPS-induced Tnf-a expression in human intestinal explant cultures (TLR4 [2]): reduced LPS-induced Tnf-a expression | Cyp1a1 expression (AHR activation) in enteroids (AHR [3]; Ahr^−/− enteroids, I3C or human breast milk): not | Cyp1a1 expression (AHR activation) in enteroids (AHR [3]; wild-type enteroids, I3C (12 h) or human breast milk (100 μL/mL)): induced the expression of Cyp1a1 | Cyp1a1 expression in human intestinal explant cultures (AHR [4]): induced the expression of Cyp1a1 | Cyp1a1 expression in cultured IEC-6 enterocytes (AHR [5]): significantly increased the expression of Cyp1a1 | NEC severity (mouse NEC model; Ahr^ΔIEC mice, I3C 25 mg/kg/day during NEC induction): relatively scant protective effect | NEC severity (mouse NEC model; Ahr^Δlys mice, I3C 25 mg/kg/day during NEC induction): moderate protective effect; also recorded: protection against NEC development | NEC severity (mouse NEC model; Ahr^−/− mice, oral to pups during NEC induction: I3C 25 mg/kg/day, A18 300 mg/kg/day, or human breast milk 5% in formula): no protective effect | NEC severity (mouse NEC model; Il22^−/− mice, I3C 25 mg/kg/day for 4 days): reduced NEC severity | severity of experimental NEC in the pups (mouse NEC model; oral I3C to the mother during pregnancy, 25 mg/kg body weight/day): significantly reduced the severity of experimental NEC | expression of 116 in the intestinal epithelium (NEC) (mouse NEC model; [8]): reduced expression of 116 | histological injury (terminal ileum, NEC) (mouse NEC model; [8]): reduced histological injury | intestinal epithelial apoptosis (TUNEL, NEC) (mouse NEC model; [8]): reduced intestinal epithelial apoptosis | NEC severity (mouse NEC model; wild-type mice, oral to pups during NEC induction: I3C 25 mg/kg/day, A18 300 mg/kg/day, or human breast milk 5% in formula): significantly reduced the severity of NEC; also recorded: protection against NEC development | LPS-induced Tnfa expression in enteroids (TLR4 [6]; Ahr^−/− enteroids): not | LPS-induced Tnfa expression in enteroids (TLR4 [6]; wild-type enteroids): significantly reduced the LPS-mediated induction of Tnfa | expression in the ileum of microRNAs miR-146b, miR-223 and let-7i ([7]; Ahr^−/− mice): did not increase the expression of these microRNAs | expression in the ileum of microRNAs miR-146b, miR-223 and let-7i ([7]; wild type mice): significantly upregulated
